Measured values reported in PMC12136037, “Type II kinase inhibitors that target Parkinson’s disease–associated LRRK2” (Science Advances, 2025).

Key:
Assay in all cases: DSF 100 kinase selectivity screen;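 further: compound tested at 20 µM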
Assay type in all cases: binding
[1] = target: T1, ~100 representative kinases (Homo sapiens, UniProt O75582); conditions: Protein RPS6KA5; DSF; average of three replicates
T1 construct: Recombinant protein kinase domains with a concentration of 2 μM
Method in brief: (§1)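 Each kinase domain, at 2 μM, is mixed with 20 μM test compound and SYPRO Orange in Hepes (20 mM, pH 7.5) with 500 mM NaCl. Temperature is then raised at 3°C/min and fluorescence-monitored unfolding yields the melting temperature change, ΔTm in degrees Celsius.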

[2] = target: T2, ~100 representative kinases (Homo sapiens, UniProt O95747); conditions: protein OSR1; average of three replicates
T2 construct: Recombinant protein kinase domains with a concentration of 2 μM
T2 sequence (O95747 whole entry, the tested form may be a part): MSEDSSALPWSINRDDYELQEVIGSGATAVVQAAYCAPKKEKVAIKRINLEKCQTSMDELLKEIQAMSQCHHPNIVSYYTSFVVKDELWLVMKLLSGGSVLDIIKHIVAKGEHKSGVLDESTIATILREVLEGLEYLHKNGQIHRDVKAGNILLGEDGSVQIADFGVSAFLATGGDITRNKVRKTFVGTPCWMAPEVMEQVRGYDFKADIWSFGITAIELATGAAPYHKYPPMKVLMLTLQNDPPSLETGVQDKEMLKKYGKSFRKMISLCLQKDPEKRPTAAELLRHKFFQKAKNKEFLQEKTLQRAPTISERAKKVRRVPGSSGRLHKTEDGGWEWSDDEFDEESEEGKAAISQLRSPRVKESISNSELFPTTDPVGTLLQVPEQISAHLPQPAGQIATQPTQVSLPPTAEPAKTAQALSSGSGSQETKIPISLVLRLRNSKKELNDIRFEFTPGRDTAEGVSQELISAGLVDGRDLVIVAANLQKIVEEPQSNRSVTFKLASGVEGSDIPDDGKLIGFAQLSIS
Method in brief: as §1

[3] = target: T3, ~100 representative kinases (Homo sapiens, UniProt O96017); conditions: Protein CHEK2; average of three replicates
T3 construct: Recombinant protein kinase domains with a concentration of 2 μM
T3 sequence (O96017 whole entry, the tested form may be a part): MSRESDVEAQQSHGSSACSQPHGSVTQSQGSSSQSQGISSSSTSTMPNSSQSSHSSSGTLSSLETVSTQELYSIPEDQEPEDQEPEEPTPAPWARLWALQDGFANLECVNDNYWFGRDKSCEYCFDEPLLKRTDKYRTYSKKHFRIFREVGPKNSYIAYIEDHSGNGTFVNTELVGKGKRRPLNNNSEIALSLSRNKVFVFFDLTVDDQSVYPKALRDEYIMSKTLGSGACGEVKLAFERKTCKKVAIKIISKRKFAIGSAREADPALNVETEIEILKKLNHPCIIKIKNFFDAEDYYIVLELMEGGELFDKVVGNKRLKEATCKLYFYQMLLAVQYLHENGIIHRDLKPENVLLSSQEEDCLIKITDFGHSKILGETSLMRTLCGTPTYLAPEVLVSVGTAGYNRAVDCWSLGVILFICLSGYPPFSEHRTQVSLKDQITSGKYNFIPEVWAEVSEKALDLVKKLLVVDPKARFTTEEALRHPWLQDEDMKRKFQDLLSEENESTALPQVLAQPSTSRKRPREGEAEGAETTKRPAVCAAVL
Method in brief: as §1

[4] = target: T4, ~100 representative kinases (Homo sapiens, UniProt P15735); conditions: protein PHKG2; average of three replicates
T4 construct: Recombinant protein kinase domains with a concentration of 2 μM
T4 sequence (P15735 1-406): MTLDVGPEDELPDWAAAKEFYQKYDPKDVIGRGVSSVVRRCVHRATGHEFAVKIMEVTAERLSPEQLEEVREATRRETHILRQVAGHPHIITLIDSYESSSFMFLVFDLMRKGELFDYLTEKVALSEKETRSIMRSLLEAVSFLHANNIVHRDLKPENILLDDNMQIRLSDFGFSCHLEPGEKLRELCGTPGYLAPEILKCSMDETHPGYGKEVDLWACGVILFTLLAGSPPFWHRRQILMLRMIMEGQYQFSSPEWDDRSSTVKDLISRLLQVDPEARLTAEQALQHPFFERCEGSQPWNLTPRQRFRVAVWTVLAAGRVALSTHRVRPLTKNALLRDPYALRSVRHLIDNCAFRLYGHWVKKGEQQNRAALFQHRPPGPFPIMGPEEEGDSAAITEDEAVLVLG
Method in brief: as §1

[5] = target: T5, ~100 representative kinases (Homo sapiens, UniProt P19784); conditions: Protein CK2A2; average of three replicates
T5 construct: Recombinant protein kinase domains with a concentration of 2 μM
T5 sequence (P19784 whole entry, the tested form may be a part): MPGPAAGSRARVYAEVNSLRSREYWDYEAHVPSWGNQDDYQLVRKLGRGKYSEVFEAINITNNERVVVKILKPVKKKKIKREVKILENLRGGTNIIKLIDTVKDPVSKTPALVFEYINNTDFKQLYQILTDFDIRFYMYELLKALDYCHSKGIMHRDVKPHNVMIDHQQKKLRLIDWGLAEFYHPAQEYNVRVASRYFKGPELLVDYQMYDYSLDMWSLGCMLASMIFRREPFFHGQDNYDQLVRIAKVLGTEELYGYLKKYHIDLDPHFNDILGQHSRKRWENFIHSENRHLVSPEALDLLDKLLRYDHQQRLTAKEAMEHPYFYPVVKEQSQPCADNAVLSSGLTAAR
Method in brief: as §1

[6] = target: T6, ~100 representative kinases (Homo sapiens, UniProt P49137); conditions: protein MAPKAPK2; average of three replicates
T6 construct: Recombinant protein kinase domains with a concentration of 2 μM
T6 sequence (P49137 whole entry, the tested form may be a part): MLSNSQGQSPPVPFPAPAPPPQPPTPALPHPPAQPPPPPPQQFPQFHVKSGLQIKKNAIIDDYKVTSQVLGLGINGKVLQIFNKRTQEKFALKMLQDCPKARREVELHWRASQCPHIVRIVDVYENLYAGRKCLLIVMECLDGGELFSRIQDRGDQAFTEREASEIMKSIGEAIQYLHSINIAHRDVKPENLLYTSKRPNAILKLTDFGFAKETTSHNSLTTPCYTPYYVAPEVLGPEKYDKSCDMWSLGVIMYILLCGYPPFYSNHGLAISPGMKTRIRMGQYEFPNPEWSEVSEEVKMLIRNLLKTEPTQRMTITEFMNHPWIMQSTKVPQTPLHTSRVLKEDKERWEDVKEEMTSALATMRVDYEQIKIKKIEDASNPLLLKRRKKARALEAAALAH
Method in brief: as §1

[7] = target: T7, ~100 representative kinases (Homo sapiens, UniProt P52564); conditions: protein MAP2K6; average of three replicates
T7 construct: Recombinant protein kinase domains with a concentration of 2 μM
T7 sequence (P52564 1-334): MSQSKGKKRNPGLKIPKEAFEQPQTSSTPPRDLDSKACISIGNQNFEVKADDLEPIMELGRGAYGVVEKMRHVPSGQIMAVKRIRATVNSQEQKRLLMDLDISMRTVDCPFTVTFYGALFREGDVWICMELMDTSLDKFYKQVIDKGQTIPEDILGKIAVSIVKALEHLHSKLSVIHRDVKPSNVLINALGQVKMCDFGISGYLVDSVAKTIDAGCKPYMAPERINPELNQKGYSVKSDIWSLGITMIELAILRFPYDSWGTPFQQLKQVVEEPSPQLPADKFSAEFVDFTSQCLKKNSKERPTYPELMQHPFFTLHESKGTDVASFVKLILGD
Method in brief: as §1

[8] = target: T8, ~100 representative kinases (Homo sapiens, UniProt P54756); conditions: Protein EPHA5; average of three replicates
T8 construct: Recombinant protein kinase domains with a concentration of 2 μM
T8 sequence (P54756 25-1037): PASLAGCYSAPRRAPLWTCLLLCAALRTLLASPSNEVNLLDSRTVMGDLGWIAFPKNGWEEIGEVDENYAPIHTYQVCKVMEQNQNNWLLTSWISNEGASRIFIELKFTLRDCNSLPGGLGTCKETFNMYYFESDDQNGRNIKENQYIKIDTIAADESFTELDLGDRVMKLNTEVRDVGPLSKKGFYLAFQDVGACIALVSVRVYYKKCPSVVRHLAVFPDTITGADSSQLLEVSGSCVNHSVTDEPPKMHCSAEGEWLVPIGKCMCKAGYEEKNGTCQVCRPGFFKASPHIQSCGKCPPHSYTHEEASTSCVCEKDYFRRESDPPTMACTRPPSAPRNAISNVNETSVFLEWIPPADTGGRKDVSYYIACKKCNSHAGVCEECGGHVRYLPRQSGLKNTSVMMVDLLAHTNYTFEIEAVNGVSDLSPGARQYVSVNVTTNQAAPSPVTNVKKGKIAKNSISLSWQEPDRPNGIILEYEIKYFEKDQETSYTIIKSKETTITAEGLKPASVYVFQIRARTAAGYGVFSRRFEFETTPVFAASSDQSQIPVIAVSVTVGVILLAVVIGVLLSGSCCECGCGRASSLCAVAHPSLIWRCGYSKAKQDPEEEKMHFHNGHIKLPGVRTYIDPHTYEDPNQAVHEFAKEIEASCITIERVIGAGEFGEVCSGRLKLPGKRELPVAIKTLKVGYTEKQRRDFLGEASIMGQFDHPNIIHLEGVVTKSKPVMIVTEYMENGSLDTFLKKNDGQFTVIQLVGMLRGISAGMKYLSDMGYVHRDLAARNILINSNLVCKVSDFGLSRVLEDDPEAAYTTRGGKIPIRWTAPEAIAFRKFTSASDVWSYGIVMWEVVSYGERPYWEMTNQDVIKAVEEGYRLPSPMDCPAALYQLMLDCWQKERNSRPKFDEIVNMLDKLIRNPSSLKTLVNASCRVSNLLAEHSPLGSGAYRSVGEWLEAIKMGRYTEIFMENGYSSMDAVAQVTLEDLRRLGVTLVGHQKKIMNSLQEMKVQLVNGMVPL
Method in brief: as §1

[9] = target: T9, ~100 representative kinases (Homo sapiens, UniProt Q13153); conditions: protein PAK1; average of three replicates
T9 construct: Recombinant protein kinase domains with a concentration of 2 μM
T9 sequence (Q13153 whole entry, the tested form may be a part): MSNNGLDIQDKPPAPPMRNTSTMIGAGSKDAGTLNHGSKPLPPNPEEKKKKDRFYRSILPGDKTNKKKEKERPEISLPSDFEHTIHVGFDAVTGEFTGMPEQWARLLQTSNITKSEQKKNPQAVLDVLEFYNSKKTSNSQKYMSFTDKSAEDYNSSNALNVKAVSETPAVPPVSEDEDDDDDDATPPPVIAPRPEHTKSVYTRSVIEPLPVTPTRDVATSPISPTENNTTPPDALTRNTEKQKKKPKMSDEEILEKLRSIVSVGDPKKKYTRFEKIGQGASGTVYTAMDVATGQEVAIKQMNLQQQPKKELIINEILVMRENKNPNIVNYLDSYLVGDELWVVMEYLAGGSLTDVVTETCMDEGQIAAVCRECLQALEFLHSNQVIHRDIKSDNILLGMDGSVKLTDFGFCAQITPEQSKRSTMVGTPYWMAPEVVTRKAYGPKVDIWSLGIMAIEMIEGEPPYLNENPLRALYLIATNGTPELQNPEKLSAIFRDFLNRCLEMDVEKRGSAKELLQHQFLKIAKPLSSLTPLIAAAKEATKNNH
Method in brief: as §1

[10] = target: T10, ~100 representative kinases (Homo sapiens, UniProt Q13873); conditions: Protein BMPR2; average of three replicates
T10 construct: Recombinant protein kinase domains with a concentration of 2 μM
T10 sequence (Q13873 27-1038): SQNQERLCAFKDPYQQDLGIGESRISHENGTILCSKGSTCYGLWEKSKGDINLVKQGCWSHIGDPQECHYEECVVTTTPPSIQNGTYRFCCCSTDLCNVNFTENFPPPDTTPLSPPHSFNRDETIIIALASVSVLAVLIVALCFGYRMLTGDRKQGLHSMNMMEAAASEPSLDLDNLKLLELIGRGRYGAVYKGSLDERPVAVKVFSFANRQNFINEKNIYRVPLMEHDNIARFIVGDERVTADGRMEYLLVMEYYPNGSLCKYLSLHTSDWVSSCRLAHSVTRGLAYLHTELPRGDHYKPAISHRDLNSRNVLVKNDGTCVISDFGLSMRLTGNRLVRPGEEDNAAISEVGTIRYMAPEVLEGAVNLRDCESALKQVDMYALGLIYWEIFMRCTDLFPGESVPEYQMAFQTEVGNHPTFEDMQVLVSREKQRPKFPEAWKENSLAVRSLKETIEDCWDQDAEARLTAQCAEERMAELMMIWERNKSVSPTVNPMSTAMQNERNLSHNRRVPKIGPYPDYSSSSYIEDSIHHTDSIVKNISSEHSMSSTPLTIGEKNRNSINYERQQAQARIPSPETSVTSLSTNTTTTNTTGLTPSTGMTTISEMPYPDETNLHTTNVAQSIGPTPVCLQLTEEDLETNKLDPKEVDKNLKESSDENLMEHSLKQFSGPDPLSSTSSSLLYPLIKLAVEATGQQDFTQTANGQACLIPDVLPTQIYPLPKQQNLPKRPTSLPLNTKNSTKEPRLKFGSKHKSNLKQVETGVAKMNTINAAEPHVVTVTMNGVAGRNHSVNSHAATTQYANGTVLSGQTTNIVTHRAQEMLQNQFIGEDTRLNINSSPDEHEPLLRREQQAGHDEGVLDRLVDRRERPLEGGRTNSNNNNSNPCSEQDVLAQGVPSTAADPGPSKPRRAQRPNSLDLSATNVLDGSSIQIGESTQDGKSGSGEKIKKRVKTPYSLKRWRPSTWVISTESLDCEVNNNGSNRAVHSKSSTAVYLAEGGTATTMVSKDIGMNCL
Method in brief: as §1

[11] = target: T11, ~100 representative kinases (Homo sapiens, UniProt Q16539); conditions: protein MAPK14; average of three replicates
T11 construct: Recombinant protein kinase domains with a concentration of 2 μM
T11 sequence (Q16539 whole entry, the tested form may be a part): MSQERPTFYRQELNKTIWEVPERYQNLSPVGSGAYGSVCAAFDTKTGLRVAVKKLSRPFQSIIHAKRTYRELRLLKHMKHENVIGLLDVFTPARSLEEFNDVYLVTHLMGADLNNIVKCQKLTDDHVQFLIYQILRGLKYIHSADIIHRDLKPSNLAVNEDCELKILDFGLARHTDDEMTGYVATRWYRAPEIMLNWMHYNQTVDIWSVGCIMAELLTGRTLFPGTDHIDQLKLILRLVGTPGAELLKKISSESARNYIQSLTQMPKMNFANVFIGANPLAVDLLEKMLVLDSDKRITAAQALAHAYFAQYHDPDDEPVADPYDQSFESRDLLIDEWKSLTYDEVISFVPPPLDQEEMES
Method in brief: as §1

[12] = target: T12, ~100 representative kinases (Homo sapiens, UniProt Q9UEW8); conditions: Protein STK39; DSF; average of three replicates
T12 construct: Recombinant protein kinase domains with a concentration of 2 μM
Method in brief: as §1

[13] = target: T13, ~100 representative kinases (Homo sapiens, UniProt Q9Y243); conditions: Protein AKT3; average of three replicates
T13 construct: Recombinant protein kinase domains with a concentration of 2 μM
T13 sequence (Q9Y243 whole entry, the tested form may be a part): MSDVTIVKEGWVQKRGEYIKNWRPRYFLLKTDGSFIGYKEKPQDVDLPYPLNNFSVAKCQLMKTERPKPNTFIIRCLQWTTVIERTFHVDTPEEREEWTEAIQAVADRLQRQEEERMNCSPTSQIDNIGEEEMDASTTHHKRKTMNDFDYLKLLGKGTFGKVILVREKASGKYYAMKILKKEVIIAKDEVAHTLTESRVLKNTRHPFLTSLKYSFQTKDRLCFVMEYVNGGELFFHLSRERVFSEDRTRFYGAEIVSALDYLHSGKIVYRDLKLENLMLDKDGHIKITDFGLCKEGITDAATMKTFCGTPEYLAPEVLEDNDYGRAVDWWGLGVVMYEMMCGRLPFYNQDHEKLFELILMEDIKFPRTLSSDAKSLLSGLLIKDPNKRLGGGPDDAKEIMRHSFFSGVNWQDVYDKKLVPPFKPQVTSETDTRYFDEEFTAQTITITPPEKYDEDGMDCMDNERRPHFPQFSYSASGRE
Method in brief: as §1

T1 sequence (O75582 whole entry, the tested form may be a part): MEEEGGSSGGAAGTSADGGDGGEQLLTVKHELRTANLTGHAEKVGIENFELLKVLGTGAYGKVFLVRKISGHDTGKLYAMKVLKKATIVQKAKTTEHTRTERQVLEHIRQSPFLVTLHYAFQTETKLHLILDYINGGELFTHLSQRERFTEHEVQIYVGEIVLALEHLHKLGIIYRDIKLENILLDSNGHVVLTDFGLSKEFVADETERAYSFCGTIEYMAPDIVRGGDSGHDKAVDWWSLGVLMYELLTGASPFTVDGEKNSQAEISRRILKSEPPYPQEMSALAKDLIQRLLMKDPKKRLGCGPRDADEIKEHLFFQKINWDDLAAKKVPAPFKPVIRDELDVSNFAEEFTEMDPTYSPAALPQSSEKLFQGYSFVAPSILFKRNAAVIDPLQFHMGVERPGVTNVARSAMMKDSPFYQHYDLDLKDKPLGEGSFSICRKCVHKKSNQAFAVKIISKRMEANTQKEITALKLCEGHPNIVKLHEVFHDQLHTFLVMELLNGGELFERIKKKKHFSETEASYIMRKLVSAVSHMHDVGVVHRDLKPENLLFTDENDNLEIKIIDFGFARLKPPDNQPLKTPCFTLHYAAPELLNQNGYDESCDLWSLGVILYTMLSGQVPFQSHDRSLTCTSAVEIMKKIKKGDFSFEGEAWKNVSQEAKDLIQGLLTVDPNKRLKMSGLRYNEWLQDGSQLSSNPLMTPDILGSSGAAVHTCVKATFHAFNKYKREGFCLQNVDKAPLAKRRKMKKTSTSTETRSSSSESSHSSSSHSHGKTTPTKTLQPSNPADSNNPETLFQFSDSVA

- dTm [1]: 7.70 K
- dTm [2]: 1.31 K
- dTm [3]: 5.31 K
- dTm [4]: 2.79 K
- dTm [5]: 1.33 K
- dTm [6]: -0.28 K
- dTm [7]: 3.64 K
- dTm [8]: 3.44 K
- dTm [9]: 6.40 K
- dTm [10]: 1.32 K
- dTm [11]: 1.97 K
- dTm [12]: 3.28 K
- dTm [13]: 0.62 K
Compound: Cc1cc(NC(=O)C2(C(=O)Nc3cccc(-c4c[nH]c5ncnc(N6CCOCC6)c45)c3)CC2)ccc1F [Compound 20]
